Measurements as given in patent US20250034115A1, “CRYSTALLINE FORMS OF C-C CHEMOKINE RECEPTOR TYPE 4 ANTAGONIST AND USES THEREOF” (RAPT THERAPEUTICS, INC., priority 2023, published 2025).

Assay: Salt screen, comments on water content / hydration versus humidity
Type: physicochemical
Experimental: Experiments to form salts were performed and evaluated using 45 different acids and bases and 15 different solvents, either alone or in some combination, which are listed in Table 1 below, and notable results of those experiments are presented in Table 2 below. L-arginine Saccharin Methyl isobutyl ketone

| hygroscopicity (Additional Comments) (1.0 equiv, water, highly variable water content based on humidity) | SMILES | level of hydration over humidity range (Additional Comments) (0.5 equiv, polymorph formed at higher (>70° C.) temperature compared with polymorph formed at ambient temp) |
| --- | --- | --- |
| – | O=C(O)[C@H](O)[C@@H](O)C(=O)O [L-Tartaric Acid] | temperature had a more stable level |
| Highly hydroscopic (highly variable | Cc1nc(N2CC([C@H]3CCCN([C@H]4C[C@](C)(C(=O)[O-])C4)C3)C2)nc(N[C@H](C)c2ccc(Cl)cc2Cl)c1Cl.[Na+] [NaOH, (1R,3r)-3-((R)-3-(1-(5-chloro-4-(((R)-1-(2,4-dichlorophenyl)ethyl)amino)-6-methylpyrimidin-2-yl)azetidin-3-yl)piperidin-1-yl)-1-methylcyclobutane-1-carboxylic acid, sodium salt] | – |
